{"source": "patent US8648203B2", "about": "(priority 2005, dated 2014)", "origin": "cited, not measured here", "system": "benzimidazole and/or dicarboximide resistant strains of B. cinerea"}
{"molecule": "O=[N+]([O-])c1cc(C(F)(F)F)c(Cl)c([N+](=O)[O-])c1Nc1ncc(C(F)(F)F)cc1Cl", "note": "[fluazinam, 3-chloro-N-(3-chloro-5-trifluoromethyl-2-pyridyl)-α,α,α-trifluoro-2,6-dinitro-p-toluidine]", "values": [{"measurement": "activity against resistant strains of B. cinerea", "value": "good activity"}]}
